Measurements from PubChem BioAssay (NCI).
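Step 1: Grow cells in 96-well plates. Step 2: Expose to compound for 48 hours at 5 concentrations. Step 3: Interpolate endpoints linearly; if unreached, use highest concentration. TGI: concentration producing complete growth inhibition.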

Legend:
Assay in all cases: NCI anticancer screen, dose series, 48 h
A498 renal = tested on: A498 renal
A549 NSCLC = tested on: A549 NSCLC
ACHN renal = tested on: ACHN renal
CAKI-1 renal = tested on: CAKI-1 renal
CCRF-CEM leukemia = tested on: CCRF-CEM leukemia
COLO 205 colon = tested on: COLO 205 colon
DU-145 prostate = tested on: DU-145 prostate
EKVX NSCLC = tested on: EKVX NSCLC
HCC-2998 colon = tested on: HCC-2998 colon
HCT-116 colon = tested on: HCT-116 colon
HCT-15 colon = tested on: HCT-15 colon
HL-60(TB) leukemia = tested on: HL-60(TB) leukemia
HOP-62 NSCLC = tested on: HOP-62 NSCLC
HS 578T breast = tested on: HS 578T breast
HT29 colon = tested on: HT29 colon
IGROV1 ovarian = tested on: IGROV1 ovarian
K-562 leukemia = tested on: K-562 leukemia
KM12 colon = tested on: KM12 colon
LOX IMVI melanoma = tested on: LOX IMVI melanoma
M14 melanoma = tested on: M14 melanoma
MALME-3M melanoma = tested on: MALME-3M melanoma
MCF7 breast = tested on: MCF7 breast
MDA-MB-231 breast = tested on: MDA-MB-231 breast
MDA-MB-435 = tested on: MDA-MB-435
MDA-N = tested on: MDA-N
MOLT-4 leukemia = tested on: MOLT-4 leukemia
NCI-H226 lung = tested on: NCI-H226 lung
NCI-H23 lung = tested on: NCI-H23 lung
NCI-H460 lung = tested on: NCI-H460 lung
NCI-H522 lung = tested on: NCI-H522 lung
NCI/ADR-RES ovarian = tested on: NCI/ADR-RES ovarian
OVCAR-3 ovarian = tested on: OVCAR-3 ovarian
OVCAR-4 ovarian = tested on: OVCAR-4 ovarian
OVCAR-5 ovarian = tested on: OVCAR-5 ovarian
OVCAR-8 ovarian = tested on: OVCAR-8 ovarian
PC-3 prostate = tested on: PC-3 prostate
RPMI-8226 leukemia = tested on: RPMI-8226 leukemia
RXF 393 renal = tested on: RXF 393 renal
SF-268 CNS = tested on: SF-268 CNS
SF-295 CNS = tested on: SF-295 CNS
SF-539 CNS = tested on: SF-539 CNS
SK-MEL-2 melanoma = tested on: SK-MEL-2 melanoma
SK-MEL-28 melanoma = tested on: SK-MEL-28 melanoma
SK-MEL-5 melanoma = tested on: SK-MEL-5 melanoma
SK-OV-3 ovarian = tested on: SK-OV-3 ovarian
SN12C renal = tested on: SN12C renal
SNB-19 CNS = tested on: SNB-19 CNS
SNB-75 CNS = tested on: SNB-75 CNS
SR leukemia = tested on: SR leukemia
SW-620 colon = tested on: SW-620 colon
T-47D breast = tested on: T-47D breast
TK-10 renal = tested on: TK-10 renal
U251 CNS = tested on: U251 CNS
UACC-62 melanoma = tested on: UACC-62 melanoma
UO-31 renal = tested on: UO-31 renal
786-0 renal = tested on: 786-0 renal
HOP-92 NSCLC = tested on: HOP-92 NSCLC
UACC-257 melanoma = tested on: UACC-257 melanoma

COc1ccc(N2C(=O)C3c4[nH]c5ccccc5c4C4CCCCCCCCCC4C3C2=O)cc1 (stereo not given)
TGI (A498 renal): > 10 µM
TGI (A549 NSCLC): > 10 µM
TGI (ACHN renal): > 10 µM
TGI (CAKI-1 renal): > 10 µM
TGI (CCRF-CEM leukemia): > 10 µM
TGI (COLO 205 colon): > 10 µM
TGI (DU-145 prostate): > 10 µM
TGI (EKVX NSCLC): > 10 µM
TGI (HCC-2998 colon): > 10 µM
TGI (HCT-116 colon): > 10 µM
TGI (HCT-15 colon): > 10 µM
TGI (HL-60(TB) leukemia): > 10 µM
TGI (HOP-62 NSCLC): > 10 µM
TGI (HS 578T breast): > 10 µM
TGI (HT29 colon): > 10 µM
TGI (IGROV1 ovarian): > 10 µM
TGI (K-562 leukemia): > 10 µM
TGI (KM12 colon): > 10 µM
TGI (LOX IMVI melanoma): > 10 µM
TGI (M14 melanoma): > 10 µM
TGI (MALME-3M melanoma): > 10 µM
TGI (MCF7 breast): > 10 µM
TGI (MDA-MB-231 breast): > 10 µM
TGI (MDA-MB-435): > 10 µM
TGI (MDA-N): > 10 µM
TGI (MOLT-4 leukemia): > 10 µM
TGI (NCI-H226 lung): > 10 µM
TGI (NCI-H23 lung): > 10 µM
TGI (NCI-H460 lung): > 10 µM
TGI (NCI-H522 lung): > 10 µM
TGI (NCI/ADR-RES ovarian): > 10 µM
TGI (OVCAR-3 ovarian): > 10 µM
TGI (OVCAR-4 ovarian): > 10 µM
TGI (OVCAR-5 ovarian): > 10 µM
TGI (OVCAR-8 ovarian): > 10 µM
TGI (PC-3 prostate): > 10 µM
TGI (RPMI-8226 leukemia): > 10 µM
TGI (RXF 393 renal): > 10 µM
TGI (SF-268 CNS): > 10 µM
TGI (SF-295 CNS): > 10 µM
TGI (SF-539 CNS): > 10 µM
TGI (SK-MEL-2 melanoma): > 10 µM
TGI (SK-MEL-28 melanoma): > 10 µM
TGI (SK-MEL-5 melanoma): > 10 µM
TGI (SK-OV-3 ovarian): > 10 µM
TGI (SN12C renal): > 10 µM
TGI (SNB-19 CNS): > 10 µM
TGI (SNB-75 CNS): > 10 µM
TGI (SR leukemia): > 10 µM
TGI (SW-620 colon): > 10 µM
TGI (T-47D breast): > 10 µM
TGI (TK-10 renal): > 10 µM
TGI (U251 CNS): > 10 µM
TGI (UACC-62 melanoma): > 10 µM
TGI (UO-31 renal): > 10 µM

CN1N=C(c2ccncc2)OC1c1ccccc1F (stereo not given)
TGI (786-0 renal): > 100 µM
TGI (A498 renal): > 100 µM
TGI (A549 NSCLC): > 100 µM
TGI (ACHN renal): > 100 µM
TGI (CCRF-CEM leukemia): > 100 µM
TGI (COLO 205 colon): > 100 µM
TGI (DU-145 prostate): > 100 µM
TGI (EKVX NSCLC): > 100 µM
TGI (HCC-2998 colon): > 100 µM
TGI (HCT-116 colon): > 100 µM
TGI (HCT-15 colon): > 100 µM
TGI (HL-60(TB) leukemia): > 100 µM
TGI (HOP-62 NSCLC): > 100 µM
TGI (HOP-92 NSCLC): > 100 µM
TGI (HS 578T breast): > 100 µM
TGI (HT29 colon): > 100 µM
TGI (IGROV1 ovarian): > 100 µM
TGI (K-562 leukemia): > 100 µM
TGI (KM12 colon): > 100 µM
TGI (LOX IMVI melanoma): > 100 µM
TGI (M14 melanoma): > 100 µM
TGI (MDA-MB-231 breast): > 100 µM
TGI (MDA-MB-435): > 100 µM
TGI (MDA-N): > 100 µM
TGI (MOLT-4 leukemia): > 100 µM
TGI (NCI-H226 lung): > 100 µM
TGI (NCI-H23 lung): > 100 µM
TGI (NCI-H460 lung): > 100 µM
TGI (NCI-H522 lung): > 100 µM
TGI (NCI/ADR-RES ovarian): > 100 µM
TGI (OVCAR-3 ovarian): > 100 µM
TGI (OVCAR-4 ovarian): > 100 µM
TGI (OVCAR-5 ovarian): > 100 µM
TGI (OVCAR-8 ovarian): > 100 µM
TGI (PC-3 prostate): > 100 µM
TGI (RPMI-8226 leukemia): > 100 µM
TGI (RXF 393 renal): > 100 µM
TGI (SF-268 CNS): > 100 µM
TGI (SF-295 CNS): > 100 µM
TGI (SF-539 CNS): > 100 µM
TGI (SK-MEL-2 melanoma): > 100 µM
TGI (SK-MEL-28 melanoma): > 100 µM
TGI (SK-MEL-5 melanoma): > 100 µM
TGI (SK-OV-3 ovarian): > 100 µM
TGI (SN12C renal): > 100 µM
TGI (SNB-19 CNS): > 100 µM
TGI (SW-620 colon): > 100 µM
TGI (T-47D breast): > 100 µM
TGI (TK-10 renal): > 100 µM
TGI (U251 CNS): > 100 µM
TGI (UACC-62 melanoma): > 100 µM
TGI (UO-31 renal): > 100 µM

CC(C)N1CN(c2ccccc2)C2(CCN(CCCC(=O)c3ccc(F)cc3)CC2)C1=O
TGI (786-0 renal): > 60.7 µM
TGI (A498 renal): 7.06 µM
TGI (A549 NSCLC): > 100 µM
TGI (ACHN renal): 42.5 µM
TGI (CAKI-1 renal): 34.7 µM
TGI (CCRF-CEM leukemia): 9.61 µM
TGI (COLO 205 colon): 1.7 µM
TGI (DU-145 prostate): 24.2 µM
TGI (EKVX NSCLC): > 100 µM
TGI (HCC-2998 colon): 27.7 µM
TGI (HCT-116 colon): 5.52 µM
TGI (HCT-15 colon): 40.5 µM
TGI (HL-60(TB) leukemia): 40.7 µM
TGI (HOP-62 NSCLC): 11.9 µM
TGI (HOP-92 NSCLC): 16.6 µM
TGI (HS 578T breast): 49.1 µM
TGI (HT29 colon): 7.85 µM
TGI (IGROV1 ovarian): 17.5 µM
TGI (K-562 leukemia): 69.7 µM
TGI (KM12 colon): 42.1 µM
TGI (LOX IMVI melanoma): 20.2 µM
TGI (M14 melanoma): 31.1 µM
TGI (MALME-3M melanoma): 29.6 µM
TGI (MCF7 breast): 13.1 µM
TGI (MDA-MB-231 breast): 26.6 µM
TGI (MDA-MB-435): 27.6 µM
TGI (MDA-N): 36.6 µM
TGI (MOLT-4 leukemia): 47.3 µM
TGI (NCI-H226 lung): 46.4 µM
TGI (NCI-H23 lung): 28.1 µM
TGI (NCI-H460 lung): 54.2 µM
TGI (NCI-H522 lung): 49.8 µM
TGI (NCI/ADR-RES ovarian): 31.1 µM
TGI (OVCAR-3 ovarian): 65.6 µM
TGI (OVCAR-4 ovarian): > 76 µM
TGI (OVCAR-5 ovarian): 30.9 µM
TGI (OVCAR-8 ovarian): > 82 µM
TGI (PC-3 prostate): > 71 µM
TGI (RPMI-8226 leukemia): 31.1 µM
TGI (RXF 393 renal): > 82.2 µM
TGI (SF-268 CNS): > 63.4 µM
TGI (SF-295 CNS): 26.9 µM
TGI (SF-539 CNS): 22.1 µM
TGI (SK-MEL-2 melanoma): 28.3 µM
TGI (SK-MEL-28 melanoma): 36.7 µM
TGI (SK-MEL-5 melanoma): 6.53 µM
TGI (SK-OV-3 ovarian): > 100 µM
TGI (SN12C renal): > 55.4 µM
TGI (SNB-19 CNS): > 56 µM
TGI (SNB-75 CNS): > 91.6 µM
TGI (SR leukemia): 46.1 µM
TGI (SW-620 colon): 24.2 µM
TGI (T-47D breast): 40.8 µM
TGI (TK-10 renal): > 49.5 µM
TGI (U251 CNS): > 100 µM
TGI (UACC-257 melanoma): 8.94 µM
TGI (UACC-62 melanoma): 38.7 µM
TGI (UO-31 renal): 58 µM
